In PubChem BioAssay (NCI) one finds TGI and GI50 data, which are given here for 9 compounds.

Values joined by “and” are separate entries in the source; they are usually repeats but may differ in a detail not shown here. Equal entries are not always repeated.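 Values below derive from 48-hour exposures of cells grown in 96-well plates, with endpoints linearly interpolated between the two concentrations bracketing the appropriate inhibition level. GI50: concentration for 50% inhibition of growth. TGI marks complete inhibition of growth.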

What all share (assay): DTP human tumour cell line panel, 48 h
The subject of assay [1] is 786-0 renal.
Assay [2] has as its system A498 renal.
In assay [3] the test system is HT29 colon.
Assay [4] deals with M14 melanoma.
The subject of assay [5] is NCI/ADR-RES ovarian.
The subject of assay [6] is SF-268 CNS.
The subject of assay [7] is SF-539 CNS.
In assay [8] the test system is SK-MEL-5 melanoma.
The subject of assay [9] is TK-10 renal.
The subject of assay [10] is U251 CNS.

Take `CCCCCCCCCCCCCCCCCCNC(=S)/N=C/c1c(O)c2ccccc2[nH]c1=O`: the TGI – broadly, the concentration giving total growth inhibition – in assay [1] amounted to 29800 nM; in assay [2], 36900 nM; in assay [3] it was 30900 nM; in [4], 35500 nM; in assay [5], 35100 nM; in assay [6], 29500 nM. In addition, the TGI in assay [7] was determined as 43100 nM; in assay [8], 70700 nM; in [9], 56100 nM; in assay [10], 40500 nM.
For the compound `CC(=O)OC12c3ccccc3-c3ccccc3C1C(C(=O)O)C2C(=O)O` (stereo unspecified), the TGI in assay [1], in assay [2], in [3], in assay [4], in [5] and in [6] was over 10000 nM throughout. Also, the total growth inhibition concentration (TGI) in assay [7], in assay [8], in assay [9] and in assay [10] was over 10000 nM in each case.
Turning to `O=C(c1ccco1)c1c(C(F)(F)F)n([O-])c2cc(C(F)(F)F)ccc2[n+]1=O`, the GI50 (usually the concentration at which growth is held to half of that of the control) in assay [1] was 479 nM; in assay [2], 1530 nM; in [3], 1250 nM; in assay [4], 1620 nM; in assay [5], 801 nM; in [6], 870 nM. Moreover, the GI50 in assay [7] is 1270 nM; in assay [8] it was 683 nM; in assay [9], 1570 nM; in assay [10], 460 nM. For the same compound, the total growth inhibition concentration (TGI) in assay [1] is 998 nM; in assay [2], 3280 nM; in [3], 2840 nM; in assay [4], 3050 nM; in assay [5], 4330 nM; in assay [6] it was 2660 nM. The TGI in assay [7] is 2610 nM; in assay [8], 1700 nM; in assay [9] it was 3100 nM; in [10] it was 951 nM.
On to `CC(C)c1cccc(O)c(=O)c1`, for which the GI50 in assay [1] was 5.54 µg/mL; in assay [3], 1.34 µg/mL; in [4], 75 µg/mL; in [5] it was 4.5 µg/mL; in assay [6] it was 1.55 µg/mL; in [7] it was 4.51 µg/mL. In addition, the GI50 in assay [8] is 1.35 µg/mL; in [9], 17.3 µg/mL; in assay [10], 1.23 µg/mL. The TGI is > 75 µg/mL and > 100 µM in assay [1]; over 100000 nM in assay [2]; > 75 µg/mL and > 57.5 µM in [4]; over 75 µg/mL in assay [5]; 23.6 µg/mL and > 61.6 µM in assay [6]; > 75 µg/mL and > 100 µM in [9].
Turning to `CCC1(OC(=O)CN)C(=O)OCc2c1cc1n(c2=O)Cc2cc3ccccc3nc2-1` (stereo unspecified), the GI50 in assay [1] is 5.63 nM; in [2], 12.9 nM; in [3] it was 111 nM and 37.4 nM; in assay [4], 17.9 nM; in assay [5], 17.3 nM; in [6], 6.89 nM. The GI50 was 37.8 nM in assay [7]; 18.7 nM and < 12.8 nM in assay [8]; 721 nM in assay [9]; 11.8 nM in assay [10]. In addition, the TGI in [1] was 194 nM and 161 nM; in [2], 159 nM and 559 nM; in [3], over 100000 nM; in assay [4], 846 nM and 174 nM; in assay [5] it was 137 nM and 77.6 nM; in assay [6] it was 14200 nM. Moreover, the TGI in assay [7] was 191 nM and 25.3 nM; in assay [8], 107 nM and 32.9 nM; in [9] it was 15100 nM; in assay [10] it was 333 nM and 636 nM.
Take `CO[C@H]1C[C@](C)(O)Cc2cc3c(c(O)c21)C(=O)c1c(O)cc2c(c1C3=O)O[C@@H]1O[C@@]2(C)[C@H](O)[C@@H](N(C)C)[C@@H]1O`: the GI50 in assay [1] was 302 nM; in [2] it was 1660 nM; in assay [3] it was 1560 nM; in assay [6] it was 1520 nM; in [9] it was 3890 nM; in assay [10] it was 461 nM. The total growth inhibition concentration (TGI) in assay [1] is 1800 nM and 2180 nM; in assay [2], 7950 nM and 5140 nM; in [3], 5790 nM and 15600 nM; in [4], 2580 nM and 4490 nM; in assay [5], 27800 nM; in [6] it was 7010 nM and 11900 nM. Moreover, the TGI was 2300 nM and 2890 nM in [7]; 3170 nM and 10200 nM in assay [8]; 6490 nM and 21500 nM in [9]; 1580 nM and 2480 nM in assay [10].
For `CO/N=C(\C([O-])=N\[n+]1cnn(CC(=O)OC(C)(C)C)c1)c1csc(NC(c2ccccc2)(c2ccccc2)c2ccccc2)n1`, the TGI in [1], in assay [2], in [3], in assay [4], in [5] and in [6] was over 10000 nM each time. For the same compound, the TGI in assay [7], in [8], in assay [9] and in assay [10] was over 10000 nM throughout.
For `C=C1C(=O)O[C@H]2[C@H]1CC/C(Cn1cc(-c3ccc(F)cc3)nn1)=C\CC[C@@]1(C)O[C@@H]21`, the GI50 in assay [1] is 1060 nM; in assay [2] it was 1820 nM; in assay [3] it was 695 nM; in assay [4], 944 nM; in assay [5], 3050 nM; in [6], 1690 nM. The GI50 in assay [7] is 271 nM; in [8], 1740 nM; in [9] it was 1240 nM; in assay [10] it was 2020 nM. Further, the concentration for total growth inhibition (TGI) in [1] worked out at 2360 nM; in [2], 3910 nM; in assay [3] it was 2150 nM; in assay [4], 2440 nM; in assay [5], 14000 nM; in [6], 3400 nM. Also, the TGI was determined as 1080 nM in assay [7], 3120 nM in assay [8], 2530 nM in [9] and 4430 nM in assay [10].
With `COc1ccc(NC(=O)c2sc3nc(C)c(C(=O)/C=C/c4cccc(OC)c4)cc3c2N)cc1`, the GI50 in assay [1] is 856 nM; in [2], 1080 nM; in assay [3], 1020 nM; in assay [4] it was 1780 nM; in assay [5], 1590 nM; in assay [6], 2070 nM. In addition, the GI50 in assay [7] is 1310 nM; in [8] it was 3550 nM; in assay [9], 1910 nM; in [10] it was 1010 nM. Further, the TGI in assay [1] is 1850 nM; in assay [2] it was 3220 nM; in [3], 2350 nM; in assay [4], 18700 nM; in [5] it was over 50000 nM; in [6] it was 14100 nM. Also, the TGI in [7] came to 3490 nM; in assay [8], 10700 nM; in [9] it was 15300 nM; in [10] it was 2140 nM.
